Measured values reported in patent publication US20040229825A1, “Pharmaceutical composition for treatment of infection with drug resistant bacterium and disinfectant” (priority 2003, published 2004).
Values after ≈ are worked out from the molar mass of the structure shown. Where two headings read alike, the source gives them in different places.

Assays:
[1] = test system: MRSA; test: Enhancement of the antibacterial activity of various antibiotics by flavone on MRSA; format: cell-based, Staphylococcus aureus; details: for MIC: Staphylococcus aureus, antibiotics alone; for MIC +flavone: addition of 50 μg/mL of flavone
Experimental: (§1) MRSA were employed as bacteria to be tested. The antibacterial activity was determined according to the agar plate dilution method defined by Japan Society of Chemotherapy (Chemotherapy 29(1), 76-79(1981)). The employed plate medium for the measurement of sensitivity was semisynthetic medium based on Mueller-Hinton Agar, and the bacteria solution for seeding was prepared by incubating the test bacterium in Mueller-Hinton Broth at 37° C. for 20 hours, followed by diluting in 0.85% saline to give 10^6 CFU/mL. The test samples were produced in two times-serial dilution method. To this plate medium for the measurement of sensitivity, was seeded a bacteria solution with a Micro Planter® (Sakuma Seisakusho). After incubating at 37° C. for 20 hours, a minimum inhibitory concentration (MIC) was determined. […] In addition, MIC50 indicates a concentration yielding the proliferation inhibitory effect in 50% of total number of MRSA strains, whilst MIC90 indicates a concentration yielding the proliferation inhibitory effect in 90% of total number of MRSA strains.
Antibacterial Activities of Various β-Lactam Antibiotics on MRSA with 50 μg/mL of Flavone

[2] = test system: MRSA infected mouse; test: Antibacterial activity on MRSA infected mouse (survival rate after 5 days); format: in vivo
Experimental: MRSA was incubated with Brain-Heart Infusion medium at 37° C. for 18 hours, and then the bacteria were collected and washed, followed by resuspension in saline. The suspension was admixed in an aqueous 5% gastric mucin solution and the concentration was adjusted to a predetermined value. Then, 0.2 mL of the mixture was intraperitoneally administered to an ICR strain SPF mouse. At one hour after the infection, various concentrations of β-lactam agents and rutin (0.2 mL) was subcutaneously administered, and survival rate was analyzed after 5 days and thus the effectiveness was evaluated. In addition, the effectiveness by oral administration (0.2 mL) was evaluated and various concentrations of β-lactam agents and rutin (0.2 mL) were administered using a gastric probe 1 hour or 5 hours prior to the infection.

[3] = test system: penicillinase producing Staphylococcus aureus; test: Effects of flavone in combination with benzylpenicillin or methicillin on penicillinase producing Staphylococcus aureus; format: cell-based
Experimental: as §1
The effects of flavone in combination with benzylpenicillin or methicillin on penicillinase producing Staphylococcus aureus are shown in Table 4.
Effects of Flavone in Combination with Benzylpenicillin or Methicillin on Penicillinase Producing Staphylococcus aureus.

[4] = test system: MRSA; test: Antibacterial activity of flavonoids on MRSA (agar plate dilution method, MIC); format: cell-based, Staphylococcus aureus; details: flavonoid alone; for MIC: 20 h
Experimental: as §1

[5] = test system: MRSA; test: Enhancement of the antibacterial activity of methicillin by various flavonoids on MRSA; format: cell-based, Staphylococcus aureus
Experimental: as §1
Antibacterial Activities of Methicillin on MRSA with 50 μg/mL of Various Flavonoids

[6] = Staphylococcus aureus, MRSA 20 strains
[7] = Staphylococcus aureus, MRSA 20 strains, read-out: MIC50
[8] = Staphylococcus aureus, MRSA 20 strains, read-out: MIC90

SMILES	MIC [1] [µg/mL]	MIC +flavone [1] [µg/mL]	MIC50 [4, 7] [µg/mL]	MIC90 [4, 8] [µg/mL]	further results
CC(=O)OCC1=C(C(=O)O)N2C(=O)[C@@H](NC(=O)CSc3ccncc3)[C@H]2SC1 [cefapirin]	128	<0.016	–	–	survival rate ([2]; antibiotic alone, 0.5 mg/mouse, after 5 days): 20%; survival rate ([2]; antibiotic alone, 1 mg/mouse, after 5 days): 20%; survival rate ([2]; antibiotic alone, 5 mg/mouse, after 5 days): 20%; survival rate ([2]; antibiotic alone, 10 mg/mouse, after 5 days): 20%; survival rate ([2]; antibiotic alone, 15 mg/mouse, after 5 days): 40%; survival rate ([2]; oral, antibiotic 10 mg/mouse with rutin 5 mg/mouse): 40%; survival rate ([2]; oral, antibiotic 10 mg/mouse with rutin 10 mg/mouse): 60%; survival rate ([2]; oral, antibiotic 15 mg/mouse with rutin 5 mg/mouse): 60%; survival rate ([2]; oral, antibiotic 15 mg/mouse with rutin 10 mg/mouse): 80%; survival rate ([2]; subcutaneous, antibiotic 10 mg/mouse with rutin 5 mg/mouse): 0%; survival rate ([2]; subcutaneous, antibiotic 10 mg/mouse with rutin 10 mg/mouse): 20%; survival rate ([2]; subcutaneous, antibiotic 15 mg/mouse with rutin 5 mg/mouse): 80%; survival rate ([2]; subcutaneous, antibiotic 15 mg/mouse with rutin 10 mg/mouse): 100%
CC1=C(C(=O)O)N2C(=O)[C@@H](NC(=O)[C@H](N)C3=CCC=CC3)[C@H]2SC1 [cefradine]	> 256	1	–	–	–
CO/N=C(\C(=O)N[C@@H]1C(=O)N2C(C(=O)O)=C(COC(N)=O)CS[C@H]12)c1ccco1 [cefuroxime]	1020	512	–	–	–
CC1(C)S[C@@H]2[C@H](NC(=O)Cc3ccccc3)C(=O)N2[C@H]1C(=O)O [benzylpenicillin]	64	32	–	–	MIC ([3]; + flavone 50 μg/mL): 0.39 µg/mL; MIC ([3]; antibiotic alone): 1.56 µg/mL
O=c1c(O)c(-c2ccc(O)c(O)c2)oc2cc(O)ccc12 [fisetin]	–	–	125 (≈ 437 µM)	125 (≈ 437 µM)	MIC [4, 6]: 62.5 to 125 µg/mL (≈ 218 to 437 µM); antibacterial activity on MRSA (in words) [4]: potent antibacterial activity
Oc1cc(O)c2c(c1)O[C@@H](c1cc(O)c(O)c(O)c1)[C@H](O)C2 [(−)-gallocatechin]	–	–	–	–	MIC of methicillin ([5]; 50 μg/mL of the named flavonoid added): 2 µg/mL
O=c1cc(-c2ccc(O)cc2)oc2cc(O)ccc12 [7,4′-dihydroxyflavone]	–	–	250 (≈ 983 µM)	500 (≈ 1970 µM)	MIC [4, 6]: 125 to 500 µg/mL (≈ 492 to 1970 µM)
CC(Oc1ccccc1)C(=O)N[C@@H]1C(=O)N2[C@@H]1SC(C)(C)[C@@H]2C(=O)O (stereo partly shown) [phenethicillin]	128	16	–	–	–
Oc1cc(O)c2cc(O)c(-c3ccc(O)c(O)c3)[o+]c2c1 [cyanidin]	–	–	250	> 500	–
CC(=N)N1CC[C@H](SC2=C(C(=O)O)N3C(=O)[C@H]([C@@H](C)O)[C@H]3C2)C1 [panipenem]	64	0.002	–	–	–
O=C1C[C@@H](c2ccc(O)cc2)Oc2cc(O)ccc21 [liquiritigenin]	–	–	–	–	MIC50 ([4]; MRSA 20 strains): 500 µg/mL (≈ 1950 µM); MIC90 ([4]; MRSA 20 strains): 500 µg/mL (≈ 1950 µM); MIC range ([4]; MRSA 20 strains): 250 to 500 µg/mL
Oc1ccc(-c2[o+]c3cc(O)cc(O)c3cc2O)cc1 [palagonidin]	–	–	250	250	MIC [4, 6]: 250 µg/mL
O=C1C[C@@H](c2ccc(O)cc2)Oc2cc(O)cc(O)c21 [naringenin]	–	–	500 (≈ 1840 µM)	> 500	–
COc1cccc(OC)c1C(=O)N[C@@H]1C(=O)N2[C@@H]1SC(C)(C)[C@@H]2C(=O)O [methicillin]	1020	4	–	–	MIC ([5]; Staphylococcus aureus, methicillin alone): 1020 µg/mL; MIC of methicillin ([5]; methicillin alone): 1024 µg/mL; MIC ([3]; antibiotic alone): 0.98 µg/mL
O=c1c(O)c(-c2ccc(O)cc2O)oc2cc(O)cc(O)c12 [morin]	–	–	500 (≈ 1650 µM)	> 500	–
